# ChEMBL document CHEMBL5154787 (J Med Chem, 2022)
# Key:
# Cytochrome P450 2D6 = Cytochrome P450 2D6 (Homo sapiens, UniProt P10635); test: Inhibition of CYP2D6 (unknown origin) incubated for 10 mins in presence of NADPH by LC-MS/MS analysis; type: ADME
# [1] = Metabolic stability in cynomolgus monkey liver microsomes assessed as half life incubated at 0.5 uM for 10 mins in presence of NADPH by LC-MS/MS analysis; type: ADME, Macaca fascicularis, Microsome
# [2] = Protein binding in human plasma assessed as unbound fraction measured after 3 hrs by LC/MS/MS analysis; type: ADME, cell-free
# [3] = Protein binding in rat plasma assessed as unbound fraction measured after 3 hrs by LC/MS/MS analysis; type: ADME, cell-free
# [4] = Metabolic stability in human liver microsomes assessed as half life incubated at 0.5 uM for 10 mins in presence of NADPH by LC-MS/MS analysis; type: ADME, Microsome
# [5] = Oral bioavailability in rat at 3 mg/kg or 2 mg/kg,iv; type: ADME, organism-based; settings: in vivo
# [6] = Metabolic stability in human liver microsomes assessed as parent compound remaining at 0.5 uM incubated for 10 mins in presence of NADPH by LC-MS/MS analysis; type: ADME, Microsome; settings: read-out: Stability
# [7] = Volume of distribution at steady state in rat at 3 mg/kg,po or 2 mg/kg,iv; type: ADME, organism-based; settings: in vivo
# [8] = Metabolic stability in dog microsomes assessed as half life incubated at 0.5 uM for 10 mins in presence of NADPH by LC-MS/MS analysis; type: ADME, Canis lupus familiaris, Liver, Microsome
# [9] = Permeability of compound at pH 7.4 incubated for 4 hrs by PAMPA assay; type: ADME; settings: read-out: permeability
# [10] = Cardiotoxicity in aortic ring (unknown origin) assessed as relaxation of phenylephrine induced aortic ring contraction at 10 uM incubated for 1 hr; type: toxicity, tissue-based, Aorta; parameters: scale not given: the % may be the effect or the level left; settings: human
# [11] = biological target: AP2-associated protein kinase 1 (Homo sapiens, UniProt Q2M2I8); test: Inhibition of full length human AAK1 expressed in HEK293F cells assessed as suppression of AP2 phosphorylation measured after 3 hrs by Western blot analysis based cellular assay; type: cell-based
# [12] = Total body clearance in rat at 3 mg/kg, po or 2 mg/kg, iv; type: ADME, organism-based; settings: in vivo, read-out: CLt/F
# [13] = Efflux ratio of permeability in human Caco-2 cells; type: ADME, cell-based
# [14] = Metabolic stability in mouse liver microsomes assessed as parent compound remaining at 0.5 uM incubated for 10 mins in presence of NADPH by LC-MS/MS analysis; type: ADME, Microsome; settings: liver microsomes, read-out: Stability
# [15] = Metabolic stability in rat liver microsomes assessed as parent compound remaining at 0.5 uM incubated for 10 mins in presence of NADPH by LC-MS/MS analysis; type: ADME, Microsome; settings: read-out: Stability
# [16] = Inhibition of sodium channel voltage-sensing domain (unknown origin); parameters: species or system Homo sapiens
# [17] = Metabolic stability in mouse liver microsomes assessed as half life incubated at 0.5 uM for 10 mins in presence of NADPH by LC-MS/MS analysis; type: ADME, Microsome; settings: liver microsomes
# Cytochrome P450 3A4 [18] = biological target: T1, Cytochrome P450 3A4 (Homo sapiens, UniProt P08684); test: Inhibition of […] (unknown origin) using BFC as substrate incubated for 10 mins in presence of NADPH by LC-MS/MS analysis; type: ADME
# [19] = Half life in rat at 3 mg/kg, po or 2 mg/kg, iv; type: ADME, organism-based; settings: in vivo
# [20] = biological target: MAP kinase-interacting serine/threonine-protein kinase 2 (Homo sapiens, UniProt Q9HBH9); test: Inhibition of MNK2 (unknown origin)
# [21] = Permeability of compound at pH 5.5 incubated for 4 hrs by PAMPA assay; type: ADME; settings: read-out: permeability
# [22] = Permeability across basolateral to apical side in human Caco-2 cells; type: ADME, cell-based; settings: read-out: permeability
# Cytochrome P450 2B6 = biological target: T2, Cytochrome P450 2B6 (Homo sapiens, UniProt P20813); test: Inhibition of CYP2B6 (unknown origin) incubated for 10 mins in presence of NADPH by LC-MS/MS analysis; type: ADME
# T2 sequence (P20813 whole entry): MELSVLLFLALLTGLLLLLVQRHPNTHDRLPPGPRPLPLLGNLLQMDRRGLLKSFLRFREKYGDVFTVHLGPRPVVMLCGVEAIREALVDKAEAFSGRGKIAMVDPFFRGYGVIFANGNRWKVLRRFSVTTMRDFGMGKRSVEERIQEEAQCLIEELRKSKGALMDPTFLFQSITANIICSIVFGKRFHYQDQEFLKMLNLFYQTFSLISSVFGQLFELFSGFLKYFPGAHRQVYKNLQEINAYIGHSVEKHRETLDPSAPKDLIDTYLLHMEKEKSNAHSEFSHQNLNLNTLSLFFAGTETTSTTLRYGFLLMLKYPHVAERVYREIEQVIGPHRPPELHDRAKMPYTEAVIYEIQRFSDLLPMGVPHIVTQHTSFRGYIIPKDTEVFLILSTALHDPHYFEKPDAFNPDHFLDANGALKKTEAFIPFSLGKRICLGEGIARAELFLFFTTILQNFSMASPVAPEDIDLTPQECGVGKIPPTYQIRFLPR
# Cytochrome P450 1A2 = biological target: T3, Cytochrome P450 1A2 (Homo sapiens, UniProt P05177); test: Inhibition of CYP1A2 (unknown origin) incubated for 10 mins in presence of NADPH by LC-MS/MS analysis; type: ADME
# T3 sequence (P05177 whole entry): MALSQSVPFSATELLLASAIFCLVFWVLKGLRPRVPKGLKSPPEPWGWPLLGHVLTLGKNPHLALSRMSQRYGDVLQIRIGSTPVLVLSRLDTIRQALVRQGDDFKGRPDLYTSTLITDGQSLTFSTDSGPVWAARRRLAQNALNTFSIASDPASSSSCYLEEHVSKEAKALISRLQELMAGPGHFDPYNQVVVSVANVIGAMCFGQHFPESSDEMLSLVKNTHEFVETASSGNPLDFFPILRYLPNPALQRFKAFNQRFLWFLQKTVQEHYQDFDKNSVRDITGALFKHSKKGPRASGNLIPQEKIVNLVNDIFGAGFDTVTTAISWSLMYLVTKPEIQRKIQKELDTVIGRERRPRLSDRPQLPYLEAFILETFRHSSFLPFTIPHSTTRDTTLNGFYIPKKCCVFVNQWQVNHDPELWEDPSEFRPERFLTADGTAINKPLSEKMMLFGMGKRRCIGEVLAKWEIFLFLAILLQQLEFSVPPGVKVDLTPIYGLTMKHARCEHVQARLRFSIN
# [23] = Inhibition of calcium channel (unknown origin); parameters: species or system Homo sapiens
# Cytochrome P450 2C9 = Cytochrome P450 2C9 (Homo sapiens, UniProt P11712); test: Inhibition of CYP2C9 (unknown origin) incubated for 10 mins in presence of NADPH by LC-MS/MS analysis; type: ADME
# [24] = Metabolic stability in rat liver microsomes assessed as half life incubated at 0.5 uM for 10 mins in presence of NADPH by LC-MS/MS analysis; type: ADME, Microsome
# [25] = Permeability across apical to basolateral side in human Caco-2 cells; type: ADME, cell-based; settings: read-out: permeability
# [26] = biological target: BMP-2-inducible protein kinase (Homo sapiens, UniProt Q9NSY1); test: Inhibition of BIKE (unknown origin)
# Cytochrome P450 3A4 [27] = biological target: T1, Cytochrome P450 3A4; test: Inhibition of CYP3A4 (unknown origin) incubated for 10 mins in presence of NADPH by LC-MS/MS analysis; type: ADME
# T1 sequence (P08684 whole entry): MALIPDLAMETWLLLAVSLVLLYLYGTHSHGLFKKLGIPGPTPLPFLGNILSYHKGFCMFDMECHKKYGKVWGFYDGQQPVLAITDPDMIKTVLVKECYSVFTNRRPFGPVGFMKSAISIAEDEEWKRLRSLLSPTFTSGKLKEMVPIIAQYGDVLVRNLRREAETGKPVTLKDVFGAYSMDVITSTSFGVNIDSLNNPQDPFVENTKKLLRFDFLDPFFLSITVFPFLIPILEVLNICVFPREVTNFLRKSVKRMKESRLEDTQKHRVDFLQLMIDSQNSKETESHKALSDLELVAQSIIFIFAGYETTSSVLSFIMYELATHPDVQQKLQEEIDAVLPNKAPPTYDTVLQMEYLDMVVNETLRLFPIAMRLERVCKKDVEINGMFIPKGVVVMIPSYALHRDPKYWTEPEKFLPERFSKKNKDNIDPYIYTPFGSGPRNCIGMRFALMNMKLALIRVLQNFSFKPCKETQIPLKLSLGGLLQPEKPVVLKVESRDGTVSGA
# MAP kinase-interacting serine/threonine-protein kinase 2, sequence (Q9HBH9 whole entry): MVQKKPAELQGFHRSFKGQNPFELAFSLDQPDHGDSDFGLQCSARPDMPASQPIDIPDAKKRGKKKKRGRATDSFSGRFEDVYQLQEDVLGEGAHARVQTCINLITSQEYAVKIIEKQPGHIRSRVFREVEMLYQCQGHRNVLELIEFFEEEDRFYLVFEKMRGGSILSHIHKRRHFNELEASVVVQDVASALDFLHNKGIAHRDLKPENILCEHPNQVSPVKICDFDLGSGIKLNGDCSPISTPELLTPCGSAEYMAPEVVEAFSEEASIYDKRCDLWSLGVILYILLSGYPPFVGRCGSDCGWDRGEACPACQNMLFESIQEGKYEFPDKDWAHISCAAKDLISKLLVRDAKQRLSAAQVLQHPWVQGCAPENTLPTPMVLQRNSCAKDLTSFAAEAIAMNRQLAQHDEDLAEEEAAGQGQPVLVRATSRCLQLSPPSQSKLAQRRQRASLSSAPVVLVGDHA
# AP2-associated protein kinase 1, sequence (Q2M2I8 whole entry): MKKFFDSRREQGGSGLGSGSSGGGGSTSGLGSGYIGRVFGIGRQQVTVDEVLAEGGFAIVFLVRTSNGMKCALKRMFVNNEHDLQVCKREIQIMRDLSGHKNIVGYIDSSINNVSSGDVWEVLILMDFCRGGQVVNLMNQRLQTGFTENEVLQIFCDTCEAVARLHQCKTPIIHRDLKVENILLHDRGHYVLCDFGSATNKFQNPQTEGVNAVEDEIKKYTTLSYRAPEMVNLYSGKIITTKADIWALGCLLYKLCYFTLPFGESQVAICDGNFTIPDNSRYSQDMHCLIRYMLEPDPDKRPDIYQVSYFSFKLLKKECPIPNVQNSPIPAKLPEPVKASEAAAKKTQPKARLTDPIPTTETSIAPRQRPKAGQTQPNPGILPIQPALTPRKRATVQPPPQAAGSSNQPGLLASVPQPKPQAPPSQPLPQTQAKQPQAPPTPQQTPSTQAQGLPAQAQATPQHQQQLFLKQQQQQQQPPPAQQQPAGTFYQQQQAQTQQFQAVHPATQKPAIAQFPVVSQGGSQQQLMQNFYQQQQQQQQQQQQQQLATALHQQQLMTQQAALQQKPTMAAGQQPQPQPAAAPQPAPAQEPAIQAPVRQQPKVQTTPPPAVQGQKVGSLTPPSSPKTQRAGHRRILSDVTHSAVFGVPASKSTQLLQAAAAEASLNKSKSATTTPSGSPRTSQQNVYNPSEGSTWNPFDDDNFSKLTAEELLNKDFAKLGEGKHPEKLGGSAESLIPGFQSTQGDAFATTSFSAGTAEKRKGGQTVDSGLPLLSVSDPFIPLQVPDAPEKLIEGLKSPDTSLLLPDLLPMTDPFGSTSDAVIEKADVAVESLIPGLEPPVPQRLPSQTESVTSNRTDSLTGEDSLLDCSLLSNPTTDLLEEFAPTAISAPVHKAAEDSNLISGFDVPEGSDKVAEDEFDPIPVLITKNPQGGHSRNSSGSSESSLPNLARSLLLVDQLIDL
# Cytochrome P450 2D6, sequence (P10635 whole entry): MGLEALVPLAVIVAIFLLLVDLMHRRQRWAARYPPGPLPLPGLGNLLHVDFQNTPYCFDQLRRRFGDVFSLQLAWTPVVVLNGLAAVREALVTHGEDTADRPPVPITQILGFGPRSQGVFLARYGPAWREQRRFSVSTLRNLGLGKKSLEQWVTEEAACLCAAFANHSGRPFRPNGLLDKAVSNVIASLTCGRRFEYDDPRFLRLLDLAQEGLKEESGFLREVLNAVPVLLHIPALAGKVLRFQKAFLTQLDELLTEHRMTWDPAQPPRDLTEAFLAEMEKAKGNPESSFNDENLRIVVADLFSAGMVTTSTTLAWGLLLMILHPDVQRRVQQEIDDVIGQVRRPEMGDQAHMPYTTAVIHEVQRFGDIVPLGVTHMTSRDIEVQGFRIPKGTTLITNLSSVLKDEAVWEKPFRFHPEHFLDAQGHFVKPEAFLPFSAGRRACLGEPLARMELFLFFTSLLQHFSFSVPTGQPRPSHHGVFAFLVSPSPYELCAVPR
# Cytochrome P450 2C9, sequence (P11712 whole entry): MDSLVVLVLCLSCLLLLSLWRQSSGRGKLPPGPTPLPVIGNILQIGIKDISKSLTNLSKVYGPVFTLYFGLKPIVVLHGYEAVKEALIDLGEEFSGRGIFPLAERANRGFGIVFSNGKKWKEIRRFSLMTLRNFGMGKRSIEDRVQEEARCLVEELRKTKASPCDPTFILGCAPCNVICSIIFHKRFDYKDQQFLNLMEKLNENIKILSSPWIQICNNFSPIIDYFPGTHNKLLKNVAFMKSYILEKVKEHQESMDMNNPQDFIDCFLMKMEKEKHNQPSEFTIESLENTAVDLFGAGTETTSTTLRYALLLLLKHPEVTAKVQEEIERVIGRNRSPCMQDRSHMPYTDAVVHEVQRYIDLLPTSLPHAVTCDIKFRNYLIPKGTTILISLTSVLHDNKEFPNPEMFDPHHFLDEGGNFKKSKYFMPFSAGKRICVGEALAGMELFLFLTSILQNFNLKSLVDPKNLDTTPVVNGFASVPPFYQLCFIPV
# BMP-2-inducible protein kinase, sequence (Q9NSY1 whole entry): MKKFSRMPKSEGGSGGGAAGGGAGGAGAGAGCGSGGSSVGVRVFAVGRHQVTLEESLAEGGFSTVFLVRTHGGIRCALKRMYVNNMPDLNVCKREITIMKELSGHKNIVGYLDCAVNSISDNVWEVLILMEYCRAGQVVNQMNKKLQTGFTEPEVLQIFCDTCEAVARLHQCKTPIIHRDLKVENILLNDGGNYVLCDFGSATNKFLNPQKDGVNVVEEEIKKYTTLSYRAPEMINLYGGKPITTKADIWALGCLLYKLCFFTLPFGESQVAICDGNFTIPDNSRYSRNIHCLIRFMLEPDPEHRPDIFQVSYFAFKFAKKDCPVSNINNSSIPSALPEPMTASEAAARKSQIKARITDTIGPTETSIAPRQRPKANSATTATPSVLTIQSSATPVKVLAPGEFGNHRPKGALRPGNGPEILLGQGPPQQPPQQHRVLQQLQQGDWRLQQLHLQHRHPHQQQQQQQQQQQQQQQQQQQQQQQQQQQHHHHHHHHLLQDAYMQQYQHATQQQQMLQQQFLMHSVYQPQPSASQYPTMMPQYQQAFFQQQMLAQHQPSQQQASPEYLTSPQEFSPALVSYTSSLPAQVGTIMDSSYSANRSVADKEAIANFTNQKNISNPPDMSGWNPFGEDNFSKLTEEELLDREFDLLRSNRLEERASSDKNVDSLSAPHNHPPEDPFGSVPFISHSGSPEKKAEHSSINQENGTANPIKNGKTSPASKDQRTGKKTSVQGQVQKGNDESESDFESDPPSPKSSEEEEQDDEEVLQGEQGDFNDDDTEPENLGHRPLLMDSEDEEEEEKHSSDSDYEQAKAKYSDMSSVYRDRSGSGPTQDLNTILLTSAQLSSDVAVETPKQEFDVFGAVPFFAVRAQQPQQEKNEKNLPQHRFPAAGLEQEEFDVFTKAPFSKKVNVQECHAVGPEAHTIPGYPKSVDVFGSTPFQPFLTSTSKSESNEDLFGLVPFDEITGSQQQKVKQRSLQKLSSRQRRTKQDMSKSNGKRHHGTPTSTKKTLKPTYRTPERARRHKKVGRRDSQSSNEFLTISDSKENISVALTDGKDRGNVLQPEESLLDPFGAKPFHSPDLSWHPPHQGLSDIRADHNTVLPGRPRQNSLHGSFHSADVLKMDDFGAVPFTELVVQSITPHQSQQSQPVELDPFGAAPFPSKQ
structure (smiles),measurement,setting,value
COC(=O)Nc1cc(-c2ccc(OC[C@@](C)(N)CC(C)C)c(C)n2)ccn1,IC50,Cytochrome P450 2D6,> 20 µM
same,half-life at 0.5 µM,[1],0.85 h
same,fraction unbound at 3 h,[2],0.18
same,fraction unbound at 3 h,[3],0.225
same,half-life at 0.5 µM,[4],> 2 h
same,bioavailability,[5],94%
same,"remaining at 10 min, 0.5 µM",[6],95%
same,Vdss,[7],16.3 L/kg
same,half-life at 0.5 µM,[8],1.68 h
same,Papp at 4 h,[9],86.4 ×10⁻⁶ cm/s
same,Activity,[10],36%
same,IC50,[11],0.0024 µM
same,CL/F,[12],17.3 mL/min/kg
same,efflux ratio,[13],1.1
same,"remaining at 10 min, 0.5 µM",[14],93%
same,"remaining at 10 min, 0.5 µM",[15],95%
same,IC50,[16],39 µM
same,half-life at 0.5 µM,[17],1.53 h
same,IC50,Cytochrome P450 3A4 [18],> 20 µM
same,half-life,[19],11.3 h
same,IC50,[20],1.5 µM
same,Papp at 4 h,[21],82.4 ×10⁻⁶ cm/s
same,Papp B→A,[22],38.4 ×10⁻⁶ cm/s
same,IC50,Cytochrome P450 2B6,> 20 µM
same,IC50,Cytochrome P450 1A2,> 20 µM
same,IC50,[23],16 µM
same,IC50,Cytochrome P450 2C9,> 20 µM
same,half-life at 0.5 µM,[24],1.42 h
same,Papp A→B,[25],35.7 ×10⁻⁶ cm/s
same,IC50,[26],0.09 µM
same,IC50,Cytochrome P450 3A4 [27],> 20 µM
